Legend:
[1] = target: NMDA/polyamine sites (polyamine-sensitive [3H]-ifenprodil binding, rat cerebral cortex membranes) (Rattus norvegicus, UniProt P35439+Q00960); experiment: NMDA/polyamine site [3H]-ifenprodil binding assay; settings: [3H]-ifenprodil 4 nM, rat cerebral cortex homogenate
Excerpt: Ifenprodil and eliprodil have been reported as antiischaemic agents (Gotti et al., 1988) and both compounds have been reported to associate with the polyamine sensitive site of the NMDA receptor complex (Carter et al., 1989 and 1990; Reynolds et al., 1989; and Robinson et al., 1990). […] These agents bind independently of the NMDA ion channel (Carter et al., 1991; Reynolds et al., 1989), appear not to cause behavioural effects (Carter et al., 1991), and may target specific heteromeric NMDA receptors (Williams, 1993; Nicola et al., 1994) uniquely distributed in forebrain regions (Standaert et al., 1994) affected in ischaemia and head trauma. […] Accordingly, compounds of the present invention are capable of binding to the NMDA receptor complex and providing a neuroprotective effect, or otherwise providing benefit in other conditions related to NMDA receptors.
Briefly, crude membrane suspensions containing 10% rat cerebral cortex were prepared in aqueous 50 mM Tris-HCl buffer (pH 7.4, 4° C.), using a Polytron homogeniser.
Nonspecific binding was determined using spermine (10 μM).
The sigma receptor ligand 3PPP(+)-3-(3-hydroxyphenyl)-N-propyl-piperidine (100 μM) was included in all tubes to block binding to sigma receptors. […] Filterpapers were collected, combined with scintillant and bound radioactivity determined using a Packard Scintillation counter.

[2] = system: murine neocortical neurones; experiment: NMDA-induced toxicity in neuronal cultures (MTT assay); assay type: cell-based; settings: Mus musculus, NMDA 600 μM, 1 h, compound added 30 min prior, cultures at 8 days in vitro, read-out: EC50 for inhibition of NMDA-induced toxicity
Method: Assay for NMDA-induced Toxicity in Neuronal Cultures
Neuronal cell death was assessed using a 3-(4,5-dimethylthiazol-2-yl)-2,5-diphenyltetrazoliurn bromide (MTT) assay in which NMDA-induced cellular changes are reflected as altered mitochondrial activity (Ankarcrona et al., 1995), as estimated by the formation of a formazan dye, which is measured spectrophotometrically. The procedure employed is essentially that of Roehlm et al. (1991) with minor modifications as previously described elsewhere in work from our laboratories Larm et al. (1996).
Primary cultures of murine neocortical neurones were established as described elsewhere (Larm et al., 1996). The effects of experimental compounds were tested in the cultures at 8 days in vitro. Exposure to NMDA (600 μM, 1 h) and other compounds was performed in an humidified incubator (5% CO2, 8% O2) at 37° C. in anti-oxidant free medium with compounds under evaluation being added 30 min prior to NMDA. For these conditions the culture medium was modified by omitting the following components: D,L- -tocopherol, D,L- -tocopherol acetate, catalase, superoxide dismutase and L-glutamine. Other details are described in Larm et al. (1996). Absorbence was read at 570 nm using a Ceres UV900 microplate reader. Control cultures were included in each experiment containing either vehicle alone or vehicle plus compound. […]

[3] = system: cultured cerebellar granule cells; experiment: Veratridine induced toxicity in neuronal cultures (MTT assay); settings: Mus musculus
Method: Veratridine Induced Toxicity in Neuronal Cultures
The cells were pre-incubated with drug for 30 minutes prior to a 60 minute exposure to veratridine (100 μM). Drug remained in the medium during exposure to veratridine. Cell viability was assessed at 18 hours by MTT assay.

Sequence of NMDA/polyamine sites (polyamine-sensitive [3H]-ifenprodil binding, rat cerebral cortex membranes) (Q00960 27-1482, other chains not shown): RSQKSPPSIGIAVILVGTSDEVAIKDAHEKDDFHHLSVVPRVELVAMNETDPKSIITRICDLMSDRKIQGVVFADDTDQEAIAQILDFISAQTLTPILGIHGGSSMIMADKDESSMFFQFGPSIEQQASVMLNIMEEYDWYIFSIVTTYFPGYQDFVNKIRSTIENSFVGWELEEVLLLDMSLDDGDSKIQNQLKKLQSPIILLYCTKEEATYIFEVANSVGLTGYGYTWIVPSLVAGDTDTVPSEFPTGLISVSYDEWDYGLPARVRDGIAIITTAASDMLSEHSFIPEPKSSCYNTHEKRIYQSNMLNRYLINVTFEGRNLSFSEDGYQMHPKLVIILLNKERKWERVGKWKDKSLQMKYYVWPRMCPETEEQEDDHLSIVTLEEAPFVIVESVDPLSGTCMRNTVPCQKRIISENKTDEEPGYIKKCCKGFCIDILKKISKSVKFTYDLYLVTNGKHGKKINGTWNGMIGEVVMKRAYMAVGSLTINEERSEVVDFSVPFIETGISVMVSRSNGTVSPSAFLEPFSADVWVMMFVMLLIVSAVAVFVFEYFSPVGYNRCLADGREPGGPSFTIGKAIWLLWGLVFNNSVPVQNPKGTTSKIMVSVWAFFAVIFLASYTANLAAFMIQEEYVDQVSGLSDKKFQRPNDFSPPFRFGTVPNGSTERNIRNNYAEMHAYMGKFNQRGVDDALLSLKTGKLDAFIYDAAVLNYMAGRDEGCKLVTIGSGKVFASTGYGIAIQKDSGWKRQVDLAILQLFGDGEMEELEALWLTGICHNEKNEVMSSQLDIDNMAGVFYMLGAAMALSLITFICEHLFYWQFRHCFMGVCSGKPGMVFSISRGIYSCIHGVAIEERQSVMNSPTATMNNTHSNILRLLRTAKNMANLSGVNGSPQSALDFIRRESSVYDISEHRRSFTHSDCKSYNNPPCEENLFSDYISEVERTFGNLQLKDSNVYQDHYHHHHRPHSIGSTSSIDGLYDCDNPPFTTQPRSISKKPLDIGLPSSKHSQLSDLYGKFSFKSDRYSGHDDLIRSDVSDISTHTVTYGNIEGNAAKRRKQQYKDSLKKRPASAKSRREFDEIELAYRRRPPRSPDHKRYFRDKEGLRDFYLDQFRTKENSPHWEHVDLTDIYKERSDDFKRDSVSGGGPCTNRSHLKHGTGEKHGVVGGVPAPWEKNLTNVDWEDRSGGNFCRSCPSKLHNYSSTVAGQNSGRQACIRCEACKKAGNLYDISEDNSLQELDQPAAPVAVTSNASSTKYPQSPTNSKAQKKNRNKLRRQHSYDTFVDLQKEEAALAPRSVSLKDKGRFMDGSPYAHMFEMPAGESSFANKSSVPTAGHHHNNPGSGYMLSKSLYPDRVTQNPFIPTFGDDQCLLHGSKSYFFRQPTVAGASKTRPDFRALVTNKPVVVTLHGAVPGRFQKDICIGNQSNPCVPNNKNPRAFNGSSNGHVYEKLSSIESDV

OC(Cc1cc(N2CCCC2)nc(N2CCCC2)n1)c1cccc(OC(F)(F)F)c1 (stereo not shown) [Compound 17, 6-[2-hydroxy-2-(3-trifluoromethoxyphenyl)ethyl]-2,4-di-N-pyrrolidinylpyrimidine]
IC50 ([1]; 2 h at 4° C., 3PPP 100 μM to block sigma sites): 4330 ± 1560 nM | Ki ([1]; competition curves analysed with Radlig): 1400 ± 47 nM | EC50 [2]: 1700 nM | EC50 [3]: 1700 nM
